Results as given in patent publication US20140377216A1, “ANTICANCER FUSION PROTEIN” (ADAMED SP. Z.O.O., priority 2011, published 2014).
“And” between values parts separate entries of the source, which are not always exact repeats. Identical values can stand only once.

What was measured:
[1] = system: human liver cancer HepG2; assay: Liver cancer model, Experiment A: HepG2 xenograft; assay type: in vivo, Crl:SHO-PrkdcscidHrhr mice; settings: 20 mg/kg i.p.
Procedure: (§1) Tumor size was measured using electronic calliper, tumor volume was calculated using the formula: (a^2×b)/2, where a=shorter diagonal of the tumor (mm) and b=longer diagonal of the tumor (mm). Inhibition of tumor growth was calculated using the formula:
(§2) TGI[%](Tumor growth inhibition)=(WT/WC)×100−100%
(§3) wherein WT is the average tumor volume in the treatment group, and WC is the average tumor volume in the control group.
On day 0 Crl:SHO-Prkdc^scidHr^hr mice were grafted subcutaneously (s.c.) in the right flank region with 7×10^6 of HepG2 cells suspended in 0.1 ml of the 3:1 mixture HBSS buffer:Matrigel using syringe with a 0.5×25 mm needle (Bogmark). When tumors reached the size of 64-529 mm^3 (day 25), mice were randomized to obtain the average size of tumors in the group of −230 mm^3 and assigned to treatment groups. The treatment groups were administered with the preparations of fusion protein of the invention of Ex. 16^b (80 mg/kg) and rhTRAIL114-281 (50 mg/kg) as a comparison and reference compound 5-FU (5-Fluorouracil, Sigma-Aldrich) (20 mg/kg). The preparations were administered intravenously (i.v.) six times every second day, 5-FU was applied intraperitoneally (i.p.). The control group received formulation buffer.
When the therapeutic group reached the average tumor size of ˜1000 mm^3, mice were sacrificed by cervical dislocation.

[2] = system: human liver cancer PLC/PRF/5; assay: Liver cancer model, Experiment B: PLC/PRF/5 xenograft; assay type: in vivo, Crl:SHO-PrkdcscidHrhr mice; settings: 30 mg/kg i.p., schedule (q1dx5)×2, 43th day
Procedure: as §1, §2, §3
On day 0 Crl:SHO-Prkdc^scidHr^hr mice were grafted subcutaneously (s.c.) in the right flank region with 7×10^6 of PLC/PRF/5 cells suspended in 0.1 ml of the 3:1 mixture HBSS buffer:Matrigel using syringe with a 0.5×25 mm needle (Bogmark). When tumors reached the size of 72-536 mm^3 (day 29), mice were randomized to obtain the average size of tumors in the group of ˜205 mm^3 and assigned to treatment groups. The treatment groups were administered with the preparations of fusion protein of the invention of Ex. 16^b (50 mg/kg) and rhTRAIL114-281 (50 mg/kg) as a comparison and reference compound 5-FU (5-Fluorouracil, Sigma-Aldrich) (30 mg/kg). The preparations were administered intravenously (i.v.) six times every second day, except 5-FU, which was applied intraperitoneally (i.p.) in the schedule (q1dx5)×2. The control group received formulation buffer.
When an experimental group reached the average tumor size of ˜1000 mm^3, mice were sacrificed by cervical dislocation.

[3] = system: pancreatic carcinoma MIA PaCa-2; assay: Pancreas cancer model, Experiment B: MIA PaCa-2 xenograft; assay type: in vivo, Crl:SHO-PrkdcscidHrhr mice; settings: 50 mg/kg i.p. six times every second day, 61th day
Procedure: as §1, §2, §3
On day 0 Crl:SHO-Prkdc^scidHr^hr mice were grafted subcutaneously (s.c.) in the right flank region with 5×10^6 of MIA PaCa-2 cells suspended in 0.1 ml of 3:1 mixture HBSS buffer:Matrigel using syringe with a 0.5×25 mm needle (Bogmark). When tumors reached the size of 60-398 mm^3 (day 20), mice were randomized to obtain the average size of tumors in the group of ˜170 mm^3 and assigned to treatment groups. The treatment groups were administered with the preparations of fusion protein of the invention of Ex. 16^b (50 mg/kg) and rhTRAIL114-281 (50 mg/kg) as a comparison and reference compound gemcytabine (Gemzar, Eli Lilly) (50 mg/kg). The preparations were administered intravenously (i.v.) six times every second day, gemcytabine was applied intraperitoneally (i.p.) in the same schedule. The control group received formulation buffer.
When a therapeutic group reached the average tumor size of ˜1000 mm^3, mice were sacrificed by the cervical dislocation.

[4] = system: NCI-H460; assay: MTT cytotoxicity test on NCI-H460; assay type: cell-based, human; settings: continuous incubation over 72 h
[5] = system: HT 144; assay: MTT cytotoxicity test on HT 144; assay type: cell-based, human; settings: continuous incubation over 72 h
[6] = system: HT-1080; assay: MTT cytotoxicity test on HT-1080; assay type: cell-based, human; settings: continuous incubation over 72 h
[7] = system: SK-HEP-1; assay: MTT cytotoxicity test on SK-HEP-1; assay type: cell-based, human; settings: continuous incubation over 72 h
[8] = system: A549; assay: MTT cytotoxicity test on A549; assay type: cell-based, human; settings: continuous incubation over 72 h
[9] = system: UM-UC-3; assay: MTT cytotoxicity test on UM-UC-3; assay type: cell-based, human; settings: continuous incubation over 72 h
[10] = system: SK-MES-1; assay: MTT cytotoxicity test on SK-MES-1; assay type: cell-based, human; settings: continuous incubation over 72 h
[11] = system: MCF10A; assay: MTT cytotoxicity test on MCF10A; assay type: cell-based; settings: continuous incubation over 72 h
[12] = system: MES-SA/Mx2; assay: MTT cytotoxicity test on MES-SA/Mx2; assay type: cell-based, human; settings: continuous incubation over 72 h
[13] = system: HUV-EC-C; assay: MTT cytotoxicity test on HUV-EC-C (healthy control cells); assay type: cell-based, human; settings: continuous incubation over 72 h
Text: (§4) MTT assay is a colorimetric assay used to measure proliferation, viability and cytotoxicity of cells. It consists in decomposition of a yellow tetrazolium salt MTT (4,5-dimethyl-2-thiazolyl)-2,5-diphenyltetrazolium bromide) to the water-insoluble purple dye formazan by mitochondrial enzyme succinate-tetrazolium reductase 1. MTT reduction occurs only in living cells. Data analysis consists in determining IC50 concentration of the protein (in ng/ml), at which the 50% reduction in the number of cells occurs in the population treated compared to control cells. Results were analyzed using GraphPad Prism 5.0 software. The test was performed according to the literature descriptions (Celis, J E, (1998). Cell Biology, a Laboratory Handbook, second edition, Academic Press, San Diego; Yang, Y., Koh, L W, Tsai, J H., (2004); Involvement of viral and chemical factors with oral cancer in Taiwan, Jpn J Clin Oncol, 34 (4), 176-183).
Cell culture medium was diluted to a defined density (10^4-10^5 cells per 100 μl). Then 100 μl of appropriately diluted cell suspension was applied to a 96-well plate in triplicates. […] After stirring, the absorbance was measured at 570 nm (reference filter 690 nm). […]

[14] = system: SW 620; assay: MTT cytotoxicity test on SW 620; assay type: cell-based, human; settings: continuous incubation over 72 h
[15] = system: MCF-7; assay: MTT cytotoxicity test on MCF-7; assay type: cell-based, human; settings: continuous incubation over 72 h
[16] = system: A498; assay: MTT cytotoxicity test on A498; assay type: cell-based, human; settings: continuous incubation over 72 h
[17] = system: SK-OV-3; assay: MTT cytotoxicity test on SK-OV-3; assay type: cell-based, human; settings: continuous incubation over 72 h
[18] = system: BxPC3; assay: MTT cytotoxicity test on BxPC3; assay type: cell-based, human; settings: continuous incubation over 72 h
[19] = system: MDA-MB-435S; assay: MTT cytotoxicity test on MDA-MB-435S; assay type: cell-based, human; settings: continuous incubation over 72 h
[20] = system: MES-SA; assay: MTT cytotoxicity test on MES-SA; assay type: cell-based, human; settings: continuous incubation over 72 h
[21] = system: Caki-1; assay: MTT cytotoxicity test on Caki-1; assay type: cell-based, human; settings: continuous incubation over 72 h
[22] = system: Panc03.27; assay: MTT cytotoxicity test on Panc03.27; assay type: cell-based, human; settings: continuous incubation over 72 h
[23] = system: LNCaP; assay: MTT cytotoxicity test on LNCaP; assay type: cell-based, human; settings: continuous incubation over 72 h
[24] = system: 293; assay: MTT cytotoxicity test on 293; assay type: cell-based, human; settings: continuous incubation over 72 h
[25] = system: HepG2; assay: MTT cytotoxicity test on HepG2; assay type: cell-based, human; settings: continuous incubation over 72 h
[26] = system: OV-CAR-3; assay: MTT cytotoxicity test on OV-CAR-3; assay type: cell-based, human; settings: continuous incubation over 72 h
[27] = system: HCT116; assay: MTT cytotoxicity test on HCT116; assay type: cell-based, human; settings: continuous incubation over 72 h
[28] = system: JURKAT A3; assay: Cytotoxicity test on JURKAT A3 (nonadherent cells); assay type: cell-based, human; settings: continuous incubation over 72 h, test MTT
Text: as §4
Cell culture medium was diluted to a defined density (10^4-10^5 cells per 100 μl). […] After stirring, the absorbance was measured at 570 nm (reference filter 690 nm).
EZ4U (Biomedica) test was used for testing cytotoxic activity of the proteins in nonadherent cell lines. […] On this basis IC50 values were determined (as an average of two independent experiments) using the GraphPad Prism 5 software. […]

[29] = system: PLC/PRF/5; assay: MTT cytotoxicity test on PLC/PRF/5; assay type: cell-based, human; settings: continuous incubation over 72 h
[30] = system: MDA-MB-231; assay: MTT cytotoxicity test on MDA-MB-231; assay type: cell-based, human; settings: continuous incubation over 72 h
[31] = system: PANC-1; assay: MTT cytotoxicity test on PANC-1; assay type: cell-based, human; settings: continuous incubation over 72 h
[32] = system: MES-SA/Dx5; assay: MTT cytotoxicity test on MES-SA/Dx5; assay type: cell-based, human; settings: continuous incubation over 72 h
[33] = system: COLO 205; assay: MTT cytotoxicity test on COLO 205; assay type: cell-based, human; settings: continuous incubation over 72 h

With O=c1[nH]cc(F)c(=O)[nH]1 [5-FU, 5-Fluorouracil] as the compound, how does the “efficacy against HepG2 tumors” value [1] read?
The value was “didn't show any efficacy”.

What about the “TGI (tumor growth inhibition) relative to the control” value [2] of the same compound?
The value was 32.2%.

With Nc1ccn([C@@H]2O[C@H](CO)[C@@H](O)C2(F)F)c(=O)n1 [gemcytabine] as the compound, how does the “TGI (tumor growth inhibition) relative to the control” value [3] read?
Its value is 42.6%.

“rhTRAIL95-281: TRAIL comparator protein as labelled in cytotoxicity Tables 4-4d (hTRAIL fragment 95-281)” was tested. Which IC50 [4] did it give?
The IC50 was 5.889 µg/mL.

What about the IC50 ([4]; listed as TRAIL 95-281) of the same compound?
Its IC50 is 0.438 µg/mL.

And the IC50 ([5]; listed as TRAIL 95-281)?
The IC50 was 1.134 µg/mL.

What about the IC50 ([5]; listed as rhTRAIL 95-281) of the same compound?
The IC50 was 1.73 µg/mL.

What about the IC50 [6] of the same compound?
The IC50 was greater than 2 µg/mL.

What about the IC50 [7] of the same compound?
Its IC50 is greater than 2 µg/mL.

And the IC50 [8]?
Its IC50 is greater than 10 µg/mL.

What about the IC50 ([8]; listed as TRAIL 95-281) of the same compound?
The IC50 was greater than 2 µg/mL.

What about the IC50 [9] of the same compound?
The IC50 was 2.242 µg/mL.

And the IC50 [10]?
The IC50 was 0.03935 µg/mL.

And the IC50 ([10]; listed as TRAIL 95-281)?
Its IC50 is 0.1007 µg/mL.

What about the IC50 [11] of the same compound?
The IC50 was greater than 10 µg/mL.

What about the IC50 ([11]; listed as TRAIL 95-281) of the same compound?
Its IC50 is greater than 2 µg/mL.

What about the IC50 [12] of the same compound?
The IC50 was 0.03895 µg/mL.

What about the IC50 [13] of the same compound?
The IC50 was greater than 2 µg/mL.

What about the IC50 [14] of the same compound?
Its IC50 is greater than 2 µg/mL.

And the IC50 [15]?
Its IC50 is greater than 2 µg/mL.

What about the IC50 [16] of the same compound?
The IC50 was 1.611 µg/mL.

What about the IC50 [17] of the same compound?
The IC50 was greater than 2 µg/mL.

What about the IC50 [18] of the same compound?
Its IC50 is 0.06471 µg/mL and 0.0606 µg/mL.

What about the IC50 [19] of the same compound?
Its IC50 is greater than 2 µg/mL.

What about the IC50 [20] of the same compound?
The IC50 was greater than 10 µg/mL.

And the IC50 ([20]; listed as TRAIL 95-281)?
The IC50 was greater than 2 µg/mL.

What about the IC50 [21] of the same compound?
The IC50 was 0.01342 µg/mL.

What about the IC50 [22] of the same compound?
Its IC50 is 0.315 µg/mL.

What about the IC50 [23] of the same compound?
The IC50 was 2.052 µg/mL.

And the IC50 [24]?
The IC50 was greater than 10 µg/mL.

And the IC50 ([25]; listed as TRAIL 95-281)?
Its IC50 is greater than 2 µg/mL.

What about the IC50 ([25]; listed as rhTRAIL 95-281) of the same compound?
Its IC50 is greater than 10 µg/mL.

And the IC50 ([26]; listed as TRAIL 95-281)?
Its IC50 is 0.963 µg/mL.

And the IC50 ([26]; listed as rhTRAIL 95-281)?
The IC50 was 0.963 µg/mL.

What about the IC50 [27] of the same compound?
Its IC50 is 7.557 µg/mL.

And the IC50 ([27]; listed as TRAIL 95-281)?
Its IC50 is greater than 2 µg/mL.

And the IC50 [28]?
Its IC50 is greater than 10 µg/mL.

And the IC50 [29]?
Its IC50 is greater than 9 µg/mL.

What about the IC50 ([29]; listed as TRAIL 95-281) of the same compound?
The IC50 was greater than 2 µg/mL.

What about the IC50 [30] of the same compound?
The IC50 was greater than 2 µg/mL.

What about the IC50 [31] of the same compound?
Its IC50 is greater than 10 µg/mL.

What about the IC50 ([31]; listed as TRAIL 95-281) of the same compound?
Its IC50 is greater than 2 µg/mL.

What about the IC50 [32] of the same compound?
The IC50 was 0.02915 µg/mL.

What about the IC50 ([32]; listed as TRAIL 95-281) of the same compound?
The IC50 was 0.02759 µg/mL.

What about the IC50 [33] of the same compound?
Its IC50 is 0.05902 µg/mL.
